From patent publication EP4537835A1, “MIXTURE, COMPOSITIONS CONTAINING THAT MIXTURE AND USE THEREOF IN THE TREATMENT OF FEMAL INFERTILITY” (Nutra Futura S.r.l., priority 2023, dated 2025)

Test system: CaCo-2 cells
Experiment: Dose-response study of cell viability (MTT assay) on CaCo-2 cells
Assay type: cell-based, human
Conditions: p<0.05 compared to the other tested doses
Description: The human intestinal epithelial cell line CaCo-2, purchased from the American Type Culture Collection (ATCC), was used as an experimental model to predict the characteristics of intestinal absorption following oral administration. This cell line was cultured in Dulbecco's Modified Eagle Medium/Nutrient F-12 Ham (DMEM-F12, Merck Life Science, Rome, Italy) containing 10% FBS (Merck Life Science, Rome, Italy), 2 mM of L-glutamine and 1% penicillin-streptomycin (Merck Life Science, Rome, Italy) and kept in an incubator at 37 °C and 5% CO2. The experiments were conducted using cells with a passage number comprised between 26 and 32 to maintain the correct properties of permeability and paracellular transport. The cells were seeded in various ways, including 1 × 10^4 cells in 96-well plates, in order to study cell viability and ROS production, synchronising the cells for 8 hours with DMEM without phenol red and supplemented with 0.5% FBS, 2 mM L-glutamine and 1% penicillin-streptomycin at 37 °C; 2 × 10^4 cells in Transwell® 6.5 mm plates (Corning® Costar®, Merck Life Science, Rome, Italy) with a polycarbonate membrane insert with 0.4 µm pores (Corning® Costar®, Merck Life Science, Rome, Italy) in a 24-well plate in order to perform the absorption analyses.
The analysis of cell viability was carried out with a classic technique based on the MTT in vitro toxicology assay kit (Merck Life Science, Rome, Italy), following the manufacturer's instructions. In fact, at the end of the treatment, the cells were incubated with 1% MTT dye for 2 hours in an incubator at 37 °C, 5% CO2 and 95% humidity; the purple formazan crystals were then dissolved in an equal volume of MTT solubilisation solution. Absorbance was analysed with a spectrophotometer (Infinite 200 Pro MPlex, Tecan, Männedorf, Switzerland) at 570 nm with correction at 690 nm, and the results were expressed versus the control ([…]), which represented the untreated cells. The results represent the percentage of viable cells versus the control, which makes it possible to understand whether the stimulation is safe or not.
With the aim of evaluating what the best concentration of each selected substance might be, and to prevent any cytotoxic effect, the viability of the CaCo-2 cells was analysed by means of the MTT assay.
• L. crispatus (10 mg/ml; 20 mg/ml; 30 mg/ml; 40 mg/ml; 50 mg/ml) • NAC (0.3 mM; 0.6 mM; 1 mM) • lycopene (0.1 µM; 0.2 µM; 0.5 µM) • vitamin D3 (10 nM; 100 nM) • folic acid (10 µM; 50 µM; 125 µM; 500 µM)
Therefore, these were maintained for all the subsequent experiments.

| SMILES | most effective concentration (cell viability) [µM] |
| --- | --- |
| CC(=O)N[C@@H](CS)C(=O)O [NAC, N-acetyl-L-cysteine] | 600 |
| C=C1CC[C@H](O)C/C1=C/C=C1\CCC[C@]2(C)[C@@H]([C@H](C)CCCC(C)C)CC[C@@H]12 [Vitamin D, cholecalciferol] | 0.01 |
| CC(C)=CCC/C(C)=C/C=C/C(C)=C/C=C/C(C)=C/C=C/C=C(C)/C=C/C=C(C)/C=C/C=C(\C)CCC=C(C)C [Lycopene, (6E,8E,10E,12E,14E,16E,18E,20E,22E,24E,26E)-2,6,10,14,19,23,27,31-Octamethyl-dotriaconta-2,6,8,10,12,14,16,18,20,22,24,26,30-tridecane] | 0.2 |
| Nc1nc(=O)c2nc(CNc3ccc(C(=O)N[C@@H](CCC(=O)O)C(=O)O)cc3)cnc2[nH]1 [Folic acid, (S)-2-(4-((2-amino-4-hydroxypteridin-6-yl)-methylamino)benzamide)pentanedioic acid] | 50 |
